Test results published in patent US20120029187A1, “HALOALKYLSULFONANILIDE DERIVATIVE” (Nissan Chemical Industries, Ltd., priority 2009, published 2012).

Tests used:
Assay type in all cases: in vivo
[1] = test system: barnyardgrass; assay: Test Example 1: herbicidal effects in preemergence treatment under submerged conditions; conditions: dose 2.52 g/a
Outline: (§1)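 Submerged conditions, 4 cm water over alluvial soil. Weeds sown and 2.5-leaf rice transplanted; compound applied preemergence to water surface, doses in g per are. Greenhouse, 25 to 30° C., three weeks, then 0–5 mortality rating.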

[2] = test system: bulrush; assay: as above; conditions: dose 2.52 g/a
Outline: as §1

[3] = test system: ducksalad; assay: as above; conditions: dose 2.52 g/a
Outline: as §1

[4] = test system: transplanted rice; assay: Test Example 1: preemergence treatment under submerged conditions, effect on crop; conditions: dose 2.52 g/a
Outline: as §1

[5] = test system: barnyardgrass; assay: Test Example 2: herbicidal effects during the vegetation period under submerged conditions; conditions: treatment during the vegetation period under submerged conditions; dose 2.52 g/a
Outline: (§2)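 Barnyardgrass, bulrush and ducksalad were co-sown in alluvial soil flooded to 4 cm and grown in a greenhouse at 25 to 30° C. At the 1- or 2-leaf stage, water-diluted emulsifiable concentrates went onto the water surface at set doses (g/a). Herbicidal effect was scored three weeks later on a graded scale.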

[6] = test system: bulrush; assay: as above; conditions: treatment during the vegetation period under submerged conditions; dose 2.52 g/a
Outline: as §2

[7] = test system: ducksalad; assay: as above; conditions: treatment during the vegetation period under submerged conditions; dose 2.52 g/a
Outline: as §2

[8] = test system: Italian ryegrass; assay: Test Example 3: herbicidal effects in soil treatment; conditions: dose 6.3 g/a
Outline: (§3)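 Seeds were sown in sterilized diluvial soil and covered with about 1.5 cm of soil. Compounds, formulated as emulsifiable concentrates and diluted with water, were sprayed evenly over the soil surface at set doses in g/a. Herbicidal effect was scored on a rating scale three weeks later.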

[9] = test system: barnyardgrass; assay: as above; conditions: dose 6.3 g/a
Outline: as §3

[10] = test system: common chickweed; assay: as above; conditions: dose 6.3 g/a
Outline: as §3

[11] = test system: common lambsquater; assay: as above; conditions: dose 6.3 g/a
Outline: as §3

[12] = test system: common ragweed; assay: as above; conditions: dose 6.3 g/a
Outline: as §3

[13] = test system: giant foxtail; assay: as above; conditions: dose 6.3 g/a
Outline: as §3

[14] = test system: large crabgrass; assay: as above; conditions: dose 6.3 g/a
Outline: as §3

[15] = test system: redroot pigweed; assay: as above; conditions: dose 6.3 g/a
Outline: as §3

[16] = test system: water foxtail; assay: as above; conditions: dose 6.3 g/a
Outline: as §3

[17] = test system: wild oat; assay: as above; conditions: dose 6.3 g/a
Outline: as §3

[18] = test system: Italian ryegrass; assay: Test Example 4: herbicidal effect in foliage treatment; conditions: dose 6.3 g/a, three weeks after application
Outline: (§4)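 Seeds were spot-sown in boxes of sterilized diluvial soil and raised in a greenhouse (25 to 30° C) for 14 days before a single foliar application. Compounds were applied as emulsifiable concentrates diluted with water, at predetermined doses in g/a. Injury was graded three weeks post-spray.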

[19] = test system: barnyardgrass; assay: as above; conditions: dose 6.3 g/a, three weeks after application
Outline: as §4

[20] = test system: beadstraw; assay: as above; conditions: dose 6.3 g/a, three weeks after application
Outline: as §4

[21] = test system: common chickweed; assay: as above; conditions: dose 6.3 g/a, three weeks after application
Outline: as §4

[22] = test system: common lambsquater; assay: as above; conditions: dose 6.3 g/a, three weeks after application
Outline: as §4

[23] = test system: common ragweed; assay: as above; conditions: dose 6.3 g/a, three weeks after application
Outline: as §4

[24] = test system: giant foxtail; assay: as above; conditions: dose 6.3 g/a, three weeks after application
Outline: as §4

[25] = test system: large crabgrass; assay: as above; conditions: dose 6.3 g/a, three weeks after application
Outline: as §4

[26] = test system: redroot pigweed; assay: as above; conditions: dose 6.3 g/a, three weeks after application
Outline: as §4

[27] = test system: water foxtail; assay: as above; conditions: dose 6.3 g/a, three weeks after application
Outline: as §4

[28] = test system: wild oat; assay: as above; conditions: dose 6.3 g/a, three weeks after application
Outline: as §4

Structure (SMILES) | A: barnyardgrass, herbicidal effect (evaluation scale 0-5) [1] | B: bulrush, herbicidal effect (evaluation scale 0-5) [2] | C: ducksalad, herbicidal effect (evaluation scale 0-5) [3] | a: transplanted rice, effect on crop (evaluation scale 0-5) [4] | A: barnyardgrass, herbicidal effect (evaluation scale 0-5) [5] | B: bulrush, herbicidal effect (evaluation scale 0-5) [6] | C: ducksalad, herbicidal effect (evaluation scale 0-5) [7] | H: Italian ryegrass, herbicidal effect (evaluation scale 0-5) [8] | A: barnyardgrass, herbicidal effect (evaluation scale 0-5) [9] | N: common chickweed, herbicidal effect (evaluation scale 0-5) [10] | L: common lambsquater, herbicidal effect (evaluation scale 0-5) [11] | J: common ragweed, herbicidal effect (evaluation scale 0-5) [12] | E: giant foxtail, herbicidal effect (evaluation scale 0-5) [13] | D: large crabgrass, herbicidal effect (evaluation scale 0-5) [14] | G: water foxtail, herbicidal effect (evaluation scale 0-5) [16] | F: wild oat, herbicidal effect (evaluation scale 0-5) [17] | H: Italian ryegrass, herbicidal effect [18] | A: barnyardgrass, herbicidal effect [19] | O: beadstraw, herbicidal effect [20] | N: common chickweed, herbicidal effect [21] | also measured
CC1CC(=O)N(Cc2ccccc2NS(=O)(=O)C(F)(F)F)CO1 (centres unmarked) [II-4] | 5 (mortality of 90% or above (nearly complete death)) | 5 (mortality of 90% or above (nearly complete death)) | 5 (mortality of 90% or above (nearly complete death)) | 0 (mortality of less than 5% (almost ineffective)) | 5 (mortality of 90% or above (nearly complete death)) | 5 (mortality of 90% or above (nearly complete death)) | 5 (mortality of 90% or above (nearly complete death)) | 3 (mortality of at least 40% and less than 70%) | 5 (mortality of 90% or above (nearly complete death)) | 5 (mortality of 90% or above (nearly complete death)) | 4 (mortality of at least 70% and less than 90%) | 4 (mortality of at least 70% and less than 90%) | 5 (mortality of 90% or above (nearly complete death)) | 5 (mortality of 90% or above (nearly complete death)) | 5 (mortality of 90% or above (nearly complete death)) | 0 (mortality of less than 5% (almost ineffective)) | 3 (mortality of at least 40% and less than 70%) | 5 (mortality of 90% or above (nearly complete death)) | 4 (mortality of at least 70% and less than 90%) | 3 (mortality of at least 40% and less than 70%) | K: redroot pigweed, herbicidal effect (evaluation scale 0-5) [15]: 0 (mortality of less than 5% (almost ineffective)); L: common lambsquater, herbicidal effect [22]: 3 (mortality of at least 40% and less than 70%); J: common ragweed, herbicidal effect [23]: 5 (mortality of 90% or above (nearly complete death)); E: giant foxtail, herbicidal effect [24]: 5 (mortality of 90% or above (nearly complete death)); D: large crabgrass, herbicidal effect [25]: 5 (mortality of 90% or above (nearly complete death)); K: redroot pigweed, herbicidal effect [26]: 0 (mortality of less than 5% (almost ineffective)); G: water foxtail, herbicidal effect [27]: 5 (mortality of 90% or above (nearly complete death)); F: wild oat, herbicidal effect [28]: 0 (mortality of less than 5% (almost ineffective))
CCOC(=O)N(c1ccccc1CN1COC(C)CC1=O)S(=O)(=O)C(F)(F)F (centres unmarked) [II-7] | 5 (mortality of 90% or above (nearly complete death)) | 5 (mortality of 90% or above (nearly complete death)) | 5 (mortality of 90% or above (nearly complete death)) | 0 (mortality of less than 5% (almost ineffective)) | 5 (mortality of 90% or above (nearly complete death)) | 5 (mortality of 90% or above (nearly complete death)) | 4 (mortality of at least 70% and less than 90%) | 2 (mortality of at least 20% and less than 40%) | 5 (mortality of 90% or above (nearly complete death)) | 4 (mortality of at least 70% and less than 90%) | 5 (mortality of 90% or above (nearly complete death)) | 4 (mortality of at least 70% and less than 90%) | 5 (mortality of 90% or above (nearly complete death)) | 5 (mortality of 90% or above (nearly complete death)) | 5 (mortality of 90% or above (nearly complete death)) | 2 (mortality of at least 20% and less than 40%) | 3 (mortality of at least 40% and less than 70%) | 5 (mortality of 90% or above (nearly complete death)) | 3 (mortality of at least 40% and less than 70%) | 2 (mortality of at least 20% and less than 40%) | K: redroot pigweed, herbicidal effect (evaluation scale 0-5) [15]: 0 (mortality of less than 5% (almost ineffective)); L: common lambsquater, herbicidal effect [22]: 5 (mortality of 90% or above (nearly complete death)); J: common ragweed, herbicidal effect [23]: 5 (mortality of 90% or above (nearly complete death)); E: giant foxtail, herbicidal effect [24]: 5 (mortality of 90% or above (nearly complete death)); D: large crabgrass, herbicidal effect [25]: 5 (mortality of 90% or above (nearly complete death)); K: redroot pigweed, herbicidal effect [26]: 0 (mortality of less than 5% (almost ineffective)); G: water foxtail, herbicidal effect [27]: 5 (mortality of 90% or above (nearly complete death)); F: wild oat, herbicidal effect [28]: 0 (mortality of less than 5% (almost ineffective))
CC1(C)CC(=O)N(Cc2ccccc2N(C(=O)c2ccccc2)S(=O)(=O)C(F)(F)F)CO1 [II-21] | 5 (mortality of 90% or above (nearly complete death)) | 5 (mortality of 90% or above (nearly complete death)) | 5 (mortality of 90% or above (nearly complete death)) | 0 (mortality of less than 5% (almost ineffective)) | 5 (mortality of 90% or above (nearly complete death)) | 5 (mortality of 90% or above (nearly complete death)) | 5 (mortality of 90% or above (nearly complete death)) | 5 (mortality of 90% or above (nearly complete death)) | 5 (mortality of 90% or above (nearly complete death)) | 4 (mortality of at least 70% and less than 90%) | 0 (mortality of less than 5% (almost ineffective)) | 5 (mortality of 90% or above (nearly complete death)) | 3 (mortality of at least 40% and less than 70%) | 5 (mortality of 90% or above (nearly complete death)) | 5 (mortality of 90% or above (nearly complete death)) | 0 (mortality of less than 5% (almost ineffective)) | 4 (mortality of at least 70% and less than 90%) | 5 (mortality of 90% or above (nearly complete death)) | 4 (mortality of at least 70% and less than 90%) | 4 (mortality of at least 70% and less than 90%) | L: common lambsquater, herbicidal effect [22]: 4 (mortality of at least 70% and less than 90%); J: common ragweed, herbicidal effect [23]: 5 (mortality of 90% or above (nearly complete death)); E: giant foxtail, herbicidal effect [24]: 4 (mortality of at least 70% and less than 90%); D: large crabgrass, herbicidal effect [25]: 4 (mortality of at least 70% and less than 90%); K: redroot pigweed, herbicidal effect [26]: 2 (mortality of at least 20% and less than 40%); G: water foxtail, herbicidal effect [27]: 5 (mortality of 90% or above (nearly complete death)); F: wild oat, herbicidal effect [28]: 0 (mortality of less than 5% (almost ineffective))
